From patent publication US20080176851A1, “Method for inhibiting lymphangiogenesis and inflammation” (Shiseido Company, Ltd., priority 2006, published 2008)
Entries after “also recorded” stand apart in the source; their conditions may differ.

Tests used:
HR-1 hairless mice [1] = experiment: Histology (hematoxylin-eosin) and MOMA-2 immunohistochemistry of UVB-irradiated ears; format: in vivo; details: for MOMA-2 positive cells / macrophage infiltration in the dermis / edema formation in the dermis vs control-treated: day 4 after UVB irradiation
Procedure: (§1) Immunofluorescence analysis was performed on 6-μm cryostat sections of human neonatal foreskins as described, using polyclonal antibodies against LYVE-1 (kindly provided by Dr. David Jackson, Oxford, UK), sGCα1, sGCβ1, eNOS (as described above), or a mouse monoclonal antibody against human podoplanin (20) (clone D2-40, Signet Laboratories, Dedham, Mass.), and corresponding secondary antibodies labeled with AlexaFluor488 or AlexaFluor594 (Molecular Probes, Eugene, Oreg.). Immunohistochemical analysis was performed on 5 μm AMEX-fixed sections as described(30), using antibodies against the macrophage monocyte marker MOMA-2 (BMA Biomedicals AG, Switzerland) or LYVE-1. Routine hematoxylin-eosin staining was also performed. Sections were examined by a Nikon E-600 microscope (Nikon, Melville, N.Y.) and images were captured with a SPOT digital camera (Diagnostic Instruments, Sterling Heights, Mich.). Computer-assisted morphometric analyses of representative LYVE-1-stained sections were performed as described(3).
(§2) A total of 15 female albino HR-1 hairless mice (Hoshino Laboratory Animal Co., Ltd, Japan) at 8 weeks of age were exposed to a single dose of 200 mJ/cm^2 of UVB irradiation, using ten Toshiba FL-20 SE fluorescent lamps that deliver energy in the UVB (280-340 nm) wave length range with a maximum energy at a wavelength of 305 nm as described(31). Beginning one day before UVB irradiation, the right ears were daily treated topically with 1 mM of SNAP, 10 μM of NS-2028, or 1 mM of SNAP together with 100 μl of 10 μM of NS-2028 in a 50% ethanol solution (n=5 per group) until day 3 after UVB irradiation (5 times total). The left ears were treated with vehicle only. The thickness of the ears was measured every day until day 4 after the UVB irradiation. At 4 days after the UVB irradiation, mouse ears were fixed in cold acetone (AMeX procedure) (30)and were processed for histological analysis of paraffin sections. All animal studies were approved by the Shiseido Life Science Research Center Committee on Research Animal Care.

HR-1 hairless mice [2] = experiment: UVB irradiation-induced ear swelling; format: in vivo; details: for ear swelling after UVB irradiation vs control-treated: 200 mJ/cm^2 UVB, topical daily 1 mM SNAP or 10 μM NS-2028, days 2-4
Procedure: as §2

lymphatic vessels = experiment: LYVE-1 immunohistochemistry and morphometric analysis of cutaneous lymphatic vessels after UVB; format: in vivo; details: UVB-irradiated mice; for enlargement of lymphatic vessels in the dermis (LYVE-1): vs vehicle
Procedure: as §1, §2

LEC [3] = experiment: LEC proliferation assay (5-methylumbelliferylheptanoate fluorescence); format: cell-based, human
Procedure: (§3) Human dermal BVEC and LEC were isolated from neonatal human foreskins by immunomagnetic purification as previously described(18, 19). The lineage-specific differentiation was confirmed by real-time RT-PCR for the lymphatic vascular markers Prox1, LYVE-1 and podoplanin, and for the blood vascukar endothelial markers VEGF receptor-1 and VEGF-C, as well as by immunostains for CD31, Prox1 and podoplanin as described(18, 19). Cells were cultured in endothelial basal medium (Cambrex, Verviers, Belgium) supplemented with 20% fetal bovine serum (Gibco, Paisley, UK), antibiotics, 2 mM L-glutamine, 10 μg/ml hydrocortisone and 2.5×10^−2 mg/ml N-6,2-O-dibutyryl-adenosine 3′,5′-cyclic monophosphate (all from Fluka, Buchs, Switzerland) for up to eleven passages.
LEC (1.5×10^3) were seeded into fibronectin-coated 96-well plates as described(19). For proliferation studies, quinduplicate wells were treated or not with different concentrations (0.1 to 10 μM) of the NO donor SNAP (S-Nitroso-N-acetyl-D,L-penicillamine) (Cayman Chemical, Ann Arbor, Mich.) in EBM containing 2% fetal bovine serum. In additional assays, LEC were incubated with 10 μM of SNAP, in the presence or absence of the specific guanylate cyclase inhibitor NS-2028 (100 nM, Cayman Chemical, Ann Arbor, Mich.). After 72 hours, cells were incubated with 5-methylumbelliferylheptanoate as described. The fluorescence intensity, proportional to the number of viable cells, was measured using a Spectra Max GEMINI EM (Bucher Biotech AG, Basel, Switzerland). Haptotatic cell migration was studied as described(19), using 24-well FluoroBlok inserts of 8 μm pore size (Falcon, Franklin Lakes, N.J.). […] After 3 hours incubation at 37° C., cells on the underside of the inserts were stained with Calcein-AM (Molecular Probes), and the fluorescence intensity, proportional to the number of viable cells, was measured using a Spectra Max GEMINI EM as described(19). […] Representative images were captured and the total length of tube-like structures per area was measured using the IP-LAB software as described(19). […]

LEC [4] = experiment: Haptotactic LEC migration assay (FluoroBlok inserts); format: cell-based, human; details: 10 μM SNAP, 100 nM NS-2028, 3 hours
Procedure: as §3
(§4) LEC (1.5×10^3) were seeded into fibronectin-coated 96-well plates as described(19). […] The fluorescence intensity, proportional to the number of viable cells, was measured using a Spectra Max GEMINI EM (Bucher Biotech AG, Basel, Switzerland). […] After 3 hours incubation at 37° C., cells on the underside of the inserts were stained with Calcein-AM (Molecular Probes), and the fluorescence intensity, proportional to the number of viable cells, was measured using a Spectra Max GEMINI EM as described(19). […] Representative images were captured and the total length of tube-like structures per area was measured using the IP-LAB software as described(19). […]

cGMP production in LEC = experiment: cGMP enzyme immunoassay in siRNA-transfected LEC; format: cell-based, human
Procedure: siRNA transfection was performed using the Basic Nucleofactor Kit for primary mammalian endothelial cells (Amaxa Biosystems, CITY, Germany). Briefly, after trypsinization, LEC (5×10^5) were resuspended in 100 μl of basic nucleofactor solution. Cells were transfected by electroporation (Nucleofactor II, Amaxa Biosystems), using 1.6 μg of siRNA containing two different double-stranded oligonucleotides for each sGCα2 or sGCα1. The following siRNAs were used: GCα1: CCUUGUACAUAUAUCAGAUtt and GGCACCCUUAAAGAUUUUUtt, GCα2: CGAUACAGCAGACUCUCAAtt and GCUAUGCUCUGAUGUUUCAtt. Control siRNA (Silencer negative control #1 siRNA, Ambion, Cambridgeshire, UK) comprising a 19-bp scrambled sequence with 3′dT overhangs was used as a control; the sequences has no significant sequence homology to any known gene sequence. At 72 hours after tranfection, cells were used for RNA purification or for cGMP assays. Efficient knockdown of mRNA expression was confirmed by TaqMan real-time RT-PCR for sGCα1 and sGCα2 (Applied Biosystems assay ID for sGCα2 was Hs00181365_ml). For cGMP enzyme immunoassays, 1×10^4 siRNA-transfected LEC were seeded into individual wells of a 96-well plate and were incubated with 2% FBS-containing medium. After 24 hours, cells were incubated with several concentrations of SNAP (1-100 μM) for 15 minutes. The cellular cGMP concentrations were measured using an EIA immunoassay kit (Amersham Biosciences, Freiburg, Germany).

LEC [5] = experiment: LEC tube formation assay (type I collagen overlay); format: cell-based, human
Procedure: as §3, §4

[6] = day 4 after UVB, SNAP in the presence of NS-2028

Compound	MOMA-2 positive cells / macrophage infiltration in the dermis (HR-1 hairless mice [1])	edema formation in the dermis vs control-treated (HR-1 hairless mice [1])	SNAP-induced edema formation (HR-1 hairless mice [1]; [6])	SNAP-induced macrophage infiltration (HR-1 hairless mice [1]; [6])	ear swelling after UVB irradiation vs control-treated (HR-1 hairless mice [2])	SNAP-induced augmentation of the UVB response (ear swelling) (HR-1 hairless mice [2]; combined topical treatment 1 mM SNAP and 10 μM NS-2028)	SNAP-induced enlargement of lymphatic vessels (lymphatic vessels; SNAP with NS-2028)	average size of lymphatic vessels (lymphatic vessels; day 4, mean±SEM n=5)	enlargement of lymphatic vessels in the dermis (LYVE-1) (lymphatic vessels)	effect on SNAP-induced LEC proliferation (LEC [3]; 10 μM SNAP, NS-2028 100 nM, 72 hours)	effect on untreated LEC (proliferation) (LEC [3]; NS-2028 alone)	effect on SNAP-induced LEC migration (LEC [4])	area occupied by lymphatic vessels (lymphatic vessels; day 4, mean±SEM n=5)	cGMP production in control siRNA- and sGCα2-siRNA transfected LEC (cGMP production in LEC; SNAP 1-100 μM, 15 minutes)	minimal effective dose for increased cGMP production (cGMP production in LEC; control siRNA-transfected and sGCα2 siRNA-transfected LEC, SNAP 15 minutes)	induction of cGMP production in sGCα1-siRNA transfected LEC (cGMP production in LEC; sGCα1 knockdown, SNAP 1-100 μM)	minimal effective concentration for induction of LEC proliferation (LEC [3]; SNAP 0.1 to 10 μM, 72 hours, EBM 2% fetal bovine serum)	formation of tube-like structures vs untreated cultures (LEC [5]; 1 μM or 10 μM SNAP)	minimal effective dose for in vitro cord formation by LEC (LEC [5]; type I collagen gel overlay, 6 hours)
4H-8-Bromo-1,2,4-oxadiazolo(3,4-d)benz(b)(1,4)oxazin-1-one [NS-2028]	less MOMA-2 positive cells	decreased	blocked	blocked	significantly reduced	completely prevented	inhibited	350.1 μm^2	completely blocked	significantly blocked	did not have any effect	blocked; also recorded: strongly inhibited							
CC(=O)NC(C(=O)O)C(C)(C)SN=O (racemic) [SNAP, S-Nitroso-N-acetyl-D,L-penicillamine]	strongly enhanced	enhanced			significantly enhanced			730.7 μm^2	pronounced enlargement				2.18%	dose-dependently induced	1 µM	no induction of cGMP was detected; also recorded: completely prevented	1 µM	potently promoted	1 µM
